The text below walks through data of EP0594651B1, “DRIED BLOOD CELLS AND METHOD OF PREPARATION” (QUADRANT HOLDINGS CAMBRIDGE LIMITED, priority 1991, dated 1993).

The test system of assay [1] is erythrocytes. Briefly: Erythrocytes incubated in an organic osmolyte, freeze-dried, rehydrated in PBS with 40% glucopyranosyl sorbitol; intact erythrocytes counted microscopically (Example 1). In kind it is cell-based. To be noted: for % Intact Cells: incubated 2 hours at 37°C, freeze-dried; for freeze drying of erythrocytes: result in words. As to the method: Whole blood was collected by venepuncture into the anticoagulant EDTA (used at a final concentration of 5mM), and then incubated for 2 hours at 37°C in one of the following osmolytes: proline, carnitine and betaine, over a range of concentrations. The samples were then frozen into a thin shell on the walls of the vessel and then placed under vacuum for drying. The vacuum was typically less than 25 µm Hg ([…]), and the samples were held under this vacuum for approxiamtely 16 hours.
The freeze-dried samples were rehydrated by resuspending some of the dry material in an hypertonic solution consisting of phosphate buffered saline (PBS) containing glucopyranosyl sorbitol at a concentration of 40%. The samples were then assesed microscopically to determine the number of intact erythrocytes.

The test system of another assay is platelets. Briefly: Freeze-drying of platelets from Platelet Rich Plasma and recovery of whole platelets on rehydration (Example 5). In kind it is cell-based. To be noted: result in words. As to the method:
Blood was collected into the anti-coagulant, acid-citrate-dextrose, and the mixture then centrifuged at approximately 1100 x g for three minutes to harvest Platelet Rich Plasma.
Aliquots of the Platelet Rich Plasma were then incubated in the presence of varying concentrations of proline, carnitine and trehalose on their own, and proline and carnitine in combination with trehalose, as well as a test sample in 7.5% NaCl. All samples were incubated for 37°C for 2 hours on a slowly moving rotary mixer, before freezing and drying.
The dehydrated samples were rehydrated with either 1 volume of water, or 1 volume of water containing 2% carnitine. […] Results obtained when rehydrating with water in the presence of 2% carnitine were generally about 25% better than those achieved with water alone.

In another assay the test system is blood cells. The assay is described as follows: Vacuum-drying of blood cells in trehalose without organic osmolyte, then rehydration. In kind it is cell-based. To be noted: result in words; vacuum-drying in the absence of an organic osmolyte.
Assay [2] concerns erythrocytes. The assay is described as follows: Freeze-dried erythrocytes rehydrated with solution A, then PBS; integrity assessed microscopically (Example 2). The class given is cell-based. To be noted: then equivalent amount of PBS. As to the method: After the dehydrated samples were resuspended fully, an equivalent amount of PBS was added, and the integrity of the erythrocytes were assessed microscopically.

The test system of assay [3] is erythrocytes. Briefly: Freeze-dried blood rehydrated with solution A and PBS; intact cells assessed by fluorescein dye exclusion (Example 4). In kind it is cell-based. As to the method: The solutions were incubated at 37°C for 2 hours and then frozen onto the walls of a […] in a thin shell by first immersing the flask while rotating it, in a mixture of solid carbon dioxide and methylated spirits. […] The blood was dried under this vacuum for at least 16 hours. […] The dry blood was rehydrated with 1 volume of solution A (see Example 2), and when all the dry blood was resuspended, an equivalent volume PBS was added.

A further assay concerns red cells. To be noted: red cells dried in proline plus sugar 10% (w/v), stored at room temperature for 3 months.

Method for red cells: Fresh blood was withdrawn by venepuncture from healthy volunteers into the anti-coagulant EDTA (final concentration 5mM). The blood was centifuged and then washed 3 to 4 times in a potassium free buffered salt solution which contains the following ingredients: Table 5
The cells were then resuspended finally at 50% and incubated for 60 minutes at 4°C, and aliquots were then dried at ambient temperature (evaporation cooled the samples) under a vacuum of less than 5 x 10^-2 mbar (50 Pa) for approximately 16 hours.
The red cells were dried in aliquots of 250µl and the rehydration was inititated by the addition of 250µl of solution 1 to the dry aliquots. The cells were allowed to rehydrate slowly, and when in solution, 500µl of solution 2 was added. At this stage the cells were viewed under the microscope and the number of apparently intact cells was counted. A further 1 ml of solution 2 was then added and the cells were then centrifuged at 5,220 x g for 5 minutes. The supernatant was removed and the cells were resuspended in solution 2. For typing the red cell antigenic status, an equal volume of the red cells in solution 2 was added to an equal volume of an antibody mixed 1 : 1 with solution 1.
The concentration of each sugar used was 10% (w/v). […]

Consider `C[N+](C)(C)CC(=O)O` [Betaine, betaine], for which the “% Intact Cells” value with erythrocytes [1] (Final Concentration 5) is recorded as 0%; in the assay with erythrocytes [1] (Final Concentration 10), 35%; in the assay on erythrocytes [1] (Final Concentration 15), less than 5%; in the assay on erythrocytes [1] (Final Concentration 20), 0%.
Regarding `OC[C@H]1O[C@H](O[C@H]2O[C@H](CO)[C@@H](O)[C@H](O)[C@H]2O)[C@H](O)[C@@H](O)[C@@H]1O` [trehalose], the “platelets recovered on reconstitution” value in the assay with platelets is “almost exclusively 'ghost' platelets”. Further, the cells on rehydration result in the assay with blood cells was “only a very small percentage of cells”.
As to `C[N+](C)(C)CC(O)CC(=O)[O-]` (stereo not drawn) [Carnitine, carnitine], the “% Intact Cells” value in the assay with erythrocytes [1] (Final Concentration 5) is recorded as 0%; in the assay with erythrocytes [1] (Final Concentration 10), less than 1%; in the assay on erythrocytes [1] (Final Concentration 15), 75%; in the assay on erythrocytes [1] (Final Concentration 20), 62%; in the assay on erythrocytes [2], 87%; in the assay on erythrocytes [3], 70%. For the same molecule, in the assay on erythrocytes [1], the “freeze drying of erythrocytes” value is listed as “particularly successful”.
Regarding `O=C(O)[C@@H]1CCCN1` [Proline, proline], the “% Intact Cells” value is recorded as 0% in the assay on erythrocytes [1] (Final Concentration 5); 62% in the assay on erythrocytes [1] (Final Concentration 10); 81% with erythrocytes [1] (Final Concentration 15); less than 1% with erythrocytes [1] (Final Concentration 20); 79% with erythrocytes [2]; 78% with erythrocytes [3]. Besides, the “freeze drying of erythrocytes” value in the assay with erythrocytes [1] was “particularly successful”. In addition, the “% apparently intact cells” value in the assay on red cells was 67%.
